Laboratory results reported in ChEMBL document CHEMBL5346926, “Optimization of triazolo[4,5-d]pyrimidines towards human CC chemokine receptor 7 (CCR7) antagonists” (Eur J Med Chem, 2023).

How the values were obtained:
[1] = target: T1, C-X-C chemokine receptor type 2 (Homo sapiens, UniProt P25025); experiment: Antagonist activity at CXCR2 in human CD4 cells by fluorescence based calcium mobilization assay; assay type: functional, cell-based, CD4+ve Th
T1 sequence (P25025 whole entry): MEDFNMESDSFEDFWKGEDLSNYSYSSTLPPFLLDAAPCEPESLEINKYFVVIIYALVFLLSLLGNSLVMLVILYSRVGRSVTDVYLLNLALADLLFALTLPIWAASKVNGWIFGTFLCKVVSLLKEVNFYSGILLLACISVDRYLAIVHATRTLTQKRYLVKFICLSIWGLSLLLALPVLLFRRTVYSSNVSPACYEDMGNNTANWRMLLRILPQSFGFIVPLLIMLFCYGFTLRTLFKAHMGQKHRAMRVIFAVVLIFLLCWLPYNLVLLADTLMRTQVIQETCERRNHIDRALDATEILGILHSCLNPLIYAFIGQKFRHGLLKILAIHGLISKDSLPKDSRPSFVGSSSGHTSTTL

[2] = target: T2, C-C chemokine receptor type 7 (Homo sapiens, UniProt P32248); experiment: Antagonist activity at CCR7 in human CD4 cells by fluorescence based calcium mobilization assay; assay type: functional, cell-based, CD4+ve Th
T2 sequence (P32248 whole entry): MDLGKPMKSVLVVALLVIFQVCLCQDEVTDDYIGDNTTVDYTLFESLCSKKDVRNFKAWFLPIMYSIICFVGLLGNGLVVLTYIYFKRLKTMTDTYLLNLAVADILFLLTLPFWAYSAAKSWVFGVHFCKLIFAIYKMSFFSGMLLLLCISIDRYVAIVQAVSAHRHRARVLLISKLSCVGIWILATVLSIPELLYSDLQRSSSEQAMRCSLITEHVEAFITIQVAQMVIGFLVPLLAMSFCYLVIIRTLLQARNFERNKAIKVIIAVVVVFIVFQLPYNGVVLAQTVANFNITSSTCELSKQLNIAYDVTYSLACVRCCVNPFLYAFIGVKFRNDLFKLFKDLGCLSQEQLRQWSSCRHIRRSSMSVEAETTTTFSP

[3] = target: T2, C-C chemokine receptor type 7; experiment: Competitive binding affinity to CCR7 in human U87 cells preincubated for 15 mins followed by CCL19 AF647 addition measured after 30 mins by flow cytometric analysis; assay type: cell-based

SMILES | IC50 [1] [µM] | IC50 [2] [µM] | IC50 [3] [µM]
Fc1cccc(CSc2nc(NCC3CC3)c3nn[nH]c3n2)c1F | 2.98 | > 30 | –
Cc1ccc([C@H](NC2=NS(=O)(=O)N=C2Nc2ccc(C)c(C(=O)N(C)C)c2O)C(C)(C)C)o1 | 6.4 | – | –
C[C@H](CO)Nc1nc(SC2CCCCC2)nc2[nH]nnc12 | > 30 | – | –
C[C@H](CO)Nc1nc(SCCC2CCCCC2)nc2[nH]nnc12 | – | 1.68 | –
CCCCCCSc1nc(N[C@H](C)CO)c2nn[nH]c2n1 | – | 0.43 | 1.78
C[C@H](CO)Nc1nc(SCc2cccc(F)c2F)nc2ccsc12 | – | > 30 | –
C[C@H](CO)Nc1nc(SCc2cccc(F)c2F)nc2sccc12 | – | > 30 | –
CN(C)CCNc1nc(SCc2cccc(F)c2F)nc2[nH]nnc12 | > 30 | > 30 | –
CCCOCCSc1nc(N[C@H](C)CO)c2nn[nH]c2n1 | – | 29.3 | –
CC(C)(CO)Nc1nc(SCc2cccc(F)c2F)nc2[nH]nnc12 | – | 2.29 | –
C[C@H](CCO)Nc1nc(SCc2cccc(F)c2F)nc2[nH]nnc12 | 2.09 | 7.14 | –
OCCCNc1nc(SCc2cccc(F)c2F)nc2[nH]nnc12 | – | 18.6 | –
C[C@H](CO)Nc1nc(SCC2CCCC2)nc2[nH]nnc12 | 2.37 | – | –
CC(C)(C)OC(=O)N1CCN(c2nc(SCc3cccc(F)c3F)nc3[nH]nnc23)CC1 | 11.5 | > 30 | –
C[C@H](CO)Nc1nc(SCc2cccc(F)c2F)nc2c1nnn2C | – | > 30 | –
C[C@H](CO)Nc1nc(OCc2cccc(F)c2F)nc2[nH]nnc12 | – | 23.8 | –

SMILES | IC50 [1] [µM] | IC50 [2] [µM] | IC50 [3] [µM]
C[C@H](CO)Nc1nc(SCc2cccc(F)c2F)nc2cccnc12 | – | > 30 | –
C[C@H](CO)Nc1nc(SCc2cccc(F)c2F)nc2nc(N)sc12 | – | > 30 | –
C[C@@H](CO)Nc1nc(SCc2cccc(F)c2F)nc2[nH]nnc12 | 1.75 | – | –
CCCNC(=O)CSc1nc(N[C@H](C)CO)c2nn[nH]c2n1 | > 30 | – | –
C[C@H](CO)Nc1nc(SCc2cccc(F)c2F)nc2cc[nH]c12 | – | > 30 | –
C[C@H](CO)Nc1nc(SCCc2ccccc2)nc2[nH]nnc12 | – | 1.18 | –
OCCSc1nc(SCc2cccc(F)c2F)nc2[nH]nnc12 | – | 5.81 | –
CN(C)c1nc(SCc2cccc(F)c2F)nc2[nH]nnc12 | – | > 30 | –
OCCNc1nc(SCc2cccc(F)c2F)nc2[nH]nnc12 | – | 8.66 | –
COCCNc1nc(SCc2cccc(F)c2F)nc2[nH]nnc12 | 8.78 | 17.2 | –
C[C@H](CO)Nc1nc(SCc2cccc(F)c2F)nc2c1CNCC2 | – | > 30 | –
CC(C)CCCCSc1nc(N[C@H](C)CO)c2nn[nH]c2n1 | – | 5.28 | –
CCCC(C)CSc1nc(N[C@H](C)CO)c2nn[nH]c2n1 (stereo not given in full) | 2.58 | 8.49 | –
C[C@H](CO)Nc1nc(Sc2ccccc2)nc2[nH]nnc12 | – | > 30 | –
Fc1cccc(CSc2nc(N3CCNCC3)c3nn[nH]c3n2)c1F | > 30 | > 30 | –
C[C@H](CO)Nc1nc(SCc2cccc(F)c2F)nc2cnccc12 | – | > 30 | –
